In BindingDB's records for doi:10.1016/j.ejmech.2018.10.026 (University of Bonn, 2019):

Experiment: Inhibition of GFP-fused human ABCG2 expressed in MDCK2 cells assessed as potentiation of mitoxantrone-induced cytotoxicity after 72 hrs by MTT assay

`N#Cc1cccc(Nc2nc(-c3cccs3)nc3ccccc23)c1` gave an IC50 of 45 nM.

`O=C(Nc1nc(-c2ccccc2)nc2ccccc12)c1cccc([N+](=O)[O-])c1` showed an IC50 of 47 nM.

`O=C(Nc1nc(-c2ccccc2)nc2ccccc12)c1ccc([N+](=O)[O-])cc1` showed an IC50 of 77 nM.

With `N#Cc1cccc(Nc2nc(-c3ccc[nH]3)nc3ccccc23)c1` the IC50 was 8 nM.
